Experimental data as given in patent publication US20230057568A1, “COMPOUNDS FOR TREATING FAMILIAL DYSAUTONOMIA” (PTC THERAPEUTICS, INC., priority 2019, published 2023).

System: Elongator complex protein 1 (ELP1, also referred to as IKBKAP)
Assay: IKBKAP-HTRF Assay
Assay type: cell-based, human
Details: FD patient-derived fibroblasts GM04589, 48 hours incubation; for EC2x for IKBKAP protein expression (concentration producing two times the amount of IKBKAP protein vs DMSO vehicle control): 7-point concentration curve; for MFI (maximum fold increase in IKBKAP protein abundance relative to the vehicle control): HTRF
Description: The assay is used for the quantitative determination of Elongator complex protein 1 (ELP1, also referred to as IKBKAP) concentration in cell lysates using the HTRF® (Homogeneous Time-Resolved Fluorescence) technology. IKBKAP is detected in a sandwich HTRF assay by use of an anti-IKAP antibody labeled with a donor and an anti-IKAP antibody labeled with an acceptor.
Cells were thawed and incubated in DMEM-10% FBS for 72 hours. Cells were trypsinized, counted, and re-suspended to a concentration of 50,000 cells/mL in DMEM-10% FBS. A 199 μL, aliquot of the cell suspensions were plated at 10,000 cells per well in a 96 well microtiter plate and incubated for 3 to 5 hours. […] Test compounds were serially diluted 3.16-fold in 100% DMSO to generate a 7-point concentration curve. A 1 μL aliquot of 200× compound solution was transferred to cell-containing wells, and cells were incubated for 48 hours in a cell culture incubator (37° C., 5% CO2, 100% relative humidity). Triplicate samples were set up for each compound concentration. After 48 hours, the supernatant was removed from the cells and 50 μL of the 1× LB4 lysis buffer, containing protease inhibitors, was added to the cells and incubated with shaking at room temperature for 1 hour. A 36 μL aliquot of this lysate was subsequently transferred to the 384-well plate containing 4 μL of the antibody solution (1:50 dilution of anti IKAP d2 and anti-IKAP K(9+8) in detection buffer). The 384-well plate was then centrifuged for 1 minute to bring the solutions to the bottom of the plate and incubated overnight at 4° C. Fluorescence for each well of the plate at 665 nm and 620 nm was measured was on the EnVision plate reader (Perkin Elmer). The AF for each sample is calculated by: […]
wherein Signal is the normalized fluorescence for each sample well and Blank is the average normalized average fluorescence for the Blank control wells.
The maximum fold increase (MFI) in IKBKAP protein abundance for compounds of Formula (I) or a form thereof relative to the vehicle control are provided in Table 1. MFI was calculated by dividing the AF value for each sample well by the sample AF for the vehicle control wells.
The EC2× for IKBKAP protein expression obtained from the 7-point concentration curve generated for each test compound according to the protocol in Biological Example 1 are also provided in Table 1. The term “EC2× for IKBKAP protein expression” is defined as the concentration of test compound that is effective in producing two times the amount of IKBKAP protein in a FD patient cell compared to the amount produced from the DMSO vehicle control.

| Structure (SMILES) | EC2x for IKBKAP protein expression (concentration producing two times the amount of IKBKAP protein vs DMSO vehicle control) | MFI (maximum fold increase in IKBKAP protein abundance relative to the vehicle control) |
| --- | --- | --- |
| Cc1c(C[C@H](C)N)sc2c(NCc3ncc[nH]3)nc(Cl)nc12 [Cpd 73, 6-[(2S)-2-aminopropyl]-2-chloro-N-[(1H-imidazol-2-yl)methyl]-7-methylthieno[3,2-d]pyrimidin-4-amine] | *** (between >0.02 μM and ≤0.5 μM) | ** (between >1.9 and <2.9) |
| Cc1c(C[C@H](C)N)sc2c(NCc3ccco3)nc(C(N)=O)nc12 [Cpd 20, 6-[(2S)-2-aminopropyl]-4-{[(furan-2-yl)methyl]amino}-7-methylthieno[3,2-d]pyrimidine-2-carboxamide] | * (EC2×>1 μM) | ** (between >1.9 and <2.9) |
| C[C@H](N)Cc1sc2c(NCc3cccs3)nc(Cl)nc2c1-c1ccc(Cl)cc1 [Cpd 88, 6-[(2S)-2-aminopropyl]-2-chloro-7-(4-chlorophenyl)-N-[(thiophen-2-yl)methyl]thieno[3,2-d]pyrimidin-4-amine] | * (EC2×>1 μM) | * (MFI<1.9) |
| CC(C)[C@H](N)Cc1cc2nc(Cl)nc(NCc3ccco3)c2s1 [Cpd 5, 6-[(2R)-2-amino-3-methylbutyl]-2-chloro-N-[(furan-2-yl)methyl]thieno[3,2-d]pyrimidin-4-amine] | *** (between >0.02 μM and ≤0.5 μM) | *** (between >2.9 and <3.9) |
| Clc1nc(NCc2ccncc2)c2scc(Br)c2n1 [Cpd 43, 7-bromo-2-chloro-N-[(pyridin-4-yl)methyl]thieno[3,2-d]pyrimidin-4-amine] | *** (between >0.02 μM and ≤0.5 μM) | **** (between >3.9 and <4.9) |
| Cc1c(C[C@H](C)N)sc2c(NCc3ncc(F)s3)nc(Cl)nc12 [Cpd 93, 6-[(2S)-2-aminopropyl]-2-chloro-N-[(5-fluoro-1,3-thiazol-2-yl)methyl]-7-methylthieno[3,2-d]pyrimidin-4-amine] | **** (between >0.005 μM and ≤0.02 μM) | ***** (>4.9) |
| CC[C@H](N)Cc1sc2c(NCc3ncco3)nc(Cl)nc2c1C [Cpd 69, 6-[(2S)-2-aminobutyl]-2-chloro-7-methyl-N-[(1,3-oxazol-2-yl)methyl]thieno[3,2-d]pyrimidin-4-amine] | **** (between >0.005 μM and ≤0.02 μM) | ***** (>4.9) |
| CC[C@H](C)[C@H](N)Cc1cc2nc(Cl)nc(NCc3ccco3)c2s1 [Cpd 6, 6-[(2R,3S)-2-amino-3-methylpentyl]-2-chloro-N-[(furan-2-yl)methyl]thieno[3,2-d]pyrimidin-4-amine] | *** (between >0.02 μM and ≤0.5 μM) | *** (between >2.9 and <3.9) |
| Clc1nc(NCc2ccncn2)c2sccc2n1 [Cpd 95, 2-chloro-N-[(pyrimidin-4-yl)methyl]thieno[3,2-d]pyrimidin-4-amine] | * (EC2×>1 μM) | *** (between >2.9 and <3.9) |
| Clc1nc(NCc2cccs2)c2scc(Br)c2n1 [Cpd 80, 7-bromo-2-chloro-N-[(thiophen-2-yl)methyl]thieno[3,2-d]pyrimidin-4-amine] | *** (between >0.02 μM and ≤0.5 μM) | ***** (>4.9) |
| C[C@H](N)Cc1cc2nc(Cl)nc(NCc3ccncc3)c2s1 [Cpd 9, 6-[(2S)-2-aminopropyl]-2-chloro-N-[(pyridin-4-yl)methyl]thieno[3,2-d]pyrimidin-4-amine] | **** (between >0.005 μM and ≤0.02 μM) | ***** (>4.9) |
| C[C@H](N)Cc1cc2ncnc(NCc3ccco3)c2s1 [Cpd 8, 6-[(2S)-2-aminopropyl]-N-[(furan-2-yl)methyl]thieno[3,2-d]pyrimidin-4-amine] | *** (between >0.02 μM and ≤0.5 μM) | *** (between >2.9 and <3.9) |
| CC[C@H](N)Cc1sc2c(NCc3ccncc3F)nc(Cl)nc2c1C [Cpd 53, 6-[(2S)-2-aminobutyl]-2-chloro-N-[(3-fluoropyridin-4-yl)methyl]-7-methylthieno[3,2-d]pyrimidin-4-amine] | ***** (<0.005 μM) | ***** (>4.9) |
| C[C@H](N)c1sc2c(NCc3ccco3)nc(Cl)nc2c1Br [Cpd 46, 6-[(1S)-1-aminoethyl]-7-bromo-2-chloro-N-[(furan-2-yl)methyl]thieno[3,2-d]pyrimidin-4-amine] | * (EC2×>1 μM) | * (MFI<1.9) |
| Cc1c(C[C@H](C)N)sc2c(NCc3ccncc3F)nc(Cl)nc12 [Cpd 35, 6-[(2S)-2-aminopropyl]-2-chloro-N-[(3-fluoropyridin-4-yl)methyl]-7-methylthieno[3,2-d]pyrimidin-4-amine] | ***** (<0.005 μM) | ***** (>4.9) |
| Cc1c(C[C@H](C)N)sc2c(NCc3cccnc3F)nc(Cl)nc12 [Cpd 60, 6-[(2S)-2-aminopropyl]-2-chloro-N-[(2-fluoropyridin-3-yl)methyl]-7-methylthieno[3,2-d]pyrimidin-4-amine] | *** (between >0.02 μM and ≤0.5 μM) | *** (between >2.9 and <3.9) |
| C[C@H](N)Cc1sc2c(NCc3ccco3)nc(Cl)nc2c1Br [Cpd 40, 6-[(2S)-2-aminopropyl]-7-bromo-2-chloro-N-[(furan-2-yl)methyl]thieno[3,2-d]pyrimidin-4-amine] | ***** (<0.005 μM) | ***** (>4.9) |
| CC[C@H](N)Cc1sc2c(NCc3ccco3)nc(Cl)nc2c1C [Cpd 13, 6-[(2S)-2-aminobutyl]-2-chloro-N-[(furan-2-yl)methyl]-7-methylthieno[3,2-d]pyrimidin-4-amine] | ***** (<0.005 μM) | ***** (>4.9) |
| CC[C@H](N)Cc1sc2c(NCc3ccns3)nc(Cl)nc2c1C [Cpd 62, 6-[(2S)-2-aminobutyl]-2-chloro-7-methyl-N-[(1,2-thiazol-5-yl)methyl]thieno[3,2-d]pyrimidin-4-amine] | **** (between >0.005 μM and ≤0.02 μM) | ***** (>4.9) |
| C[C@H](N)Cc1sc2c(NCc3ccncc3F)nc(Cl)nc2c1Br [Cpd 68, 6-[(2S)-2-aminopropyl]-7-bromo-2-chloro-N-[(3-fluoropyridin-4-yl)methyl]thieno[3,2-d]pyrimidin-4-amine] | ***** (<0.005 μM) | ***** (>4.9) |
| CC[C@H](N)Cc1sc2c(NCc3nccs3)nc(Cl)nc2c1C [Cpd 54, 6-[(2S)-2-aminobutyl]-2-chloro-7-methyl-N-[(1,3-thiazol-2-yl)methyl]thieno[3,2-d]pyrimidin-4-amine] | ***** (<0.005 μM) | ***** (>4.9) |
| COC[C@H](N)Cc1sc2c(NCc3ccco3)nc(Cl)nc2c1C [Cpd 76, 6-[(2R)-2-amino-3-methoxypropyl]-2-chloro-N-[(furan-2-yl)methyl]-7-methylthieno[3,2-d]pyrimidin-4-amine] | ***** (<0.005 μM) | ***** (>4.9) |
